# Experimental data: patent US10716797B2, “Steroid alkaloids and compositions and kits thereof” (priority 2013, dated 2020)
# Entries after “also recorded” stand apart in the source; their conditions may differ.
# Columns and labels:
# [1] = system: S. aureus hemB (SaR2); test: MIC against tomatidine-resistant SCV mutant SaR2; type: cell-based, Staphylococcus aureus
# Method: At each passage, using a microdilution method in 96-well microplates, S. aureus hemB was inoculated at ˜10^5-10^6 CFU/ml and incubated at 35° C. for 48 h. The range of tomatidine concentrations tested was 0.03 to 64 μg/ml using doubling increments. The concentration of gentamicin was fixed at 4 μg/mL when it was used in combination with tomatidine. At each passage, the minimal inhibitory concentrations (MICs) (i.e. lowest concentration of an antimicrobial that inhibits the visible growth of bacteria), of tomatidine was determined. The bacteria used as inoculum for the next passage were from the well preceeding the well showing the MIC (i.e. the well containing half the MIC). At each passage, the population of bacteria serving as the inoculum for the next passage was spread on BHI agar plates and three isolated colonies were collected and frozen until used for whole-genome sequencing.
# [2] = system: MRSA COL; test: MIC by microdilution, alone or in combination, MRSA COL; type: cell-based, Staphylococcus aureus; conditions: agent used alone
# Method: (§1) Method. The minimal inhibitory concentrations (MICs), (i.e. lowest concentration of an antimicrobial that will inhibit the visible growth of a microorganism after incubation), of test compounds were determined against the normal or SCV strains of bacterial species from the Firmicutes phylum. Briefly, MICs were determined using the microdilution method in 96-well plates (Clinical and Laboratory Standards Institute (CLSI), 2011). Bacteria were inoculated at ˜10^5-10^6 CFU/mL and incubated at 35° C. for 20 h (normal strains) or 48 h (SCVs) in brain heart infusion (BHI) broth in order to allow SCVs to reach maximal growth as previously described (Mitchell et al., 2012). Then OD595 nm was read on a microplate reader. […] In this example the range of compound concentrations tested was 0.03 to 64 μg/ml using doubling increments. Strain Staphylococcus aureus NewbouldΔhemB (hemB) was also used in the experiments and is a laboratory-derived stable SCV created by the insertion of the macrolide resistance gene ermA in the hemB gene of this strain to create the SCV phenotype (defective electron transport chain and respiratory deficiency) through inactivation of hemin biosynthesis (Brouillette et al., 2004).
# (§2) In the present Example the range of compound concentrations tested, using doubling increments, was 0.03 to 64 μg/ml for Compound 14 and up to 1024 μg/ml for gentamicin (GEN), kanamycin (KAN) and cefalexin (CEF) when these compounds were used alone. Compound 14 (Cpd 14) was used at a fixed concentration of 4 μg/ml when added to other antibiotics. The combination of CEF and KAN was used in a 3:2 ratio and doubling increments were used to test the antibacterial activity against MRSA in the absence or presence of Compound 14.
# [3] = system: Listeria monocytogenes (strain ATCC 13932); test: Time-kill experiments, Listeria monocytogenes; type: cell-based
# Method: Time-kill experiments were performed in order to determine whether the effect of test compounds or the combination with an aminoglycoside on Listeria monocytogenes (strain ATCC 13932) is bacteriostatic (prevents growth) or bactericidal (kills cells).
# At several time points during growth at 35° C. (225 RPM), bacteria were sampled, serially diluted and plated on Brain Hearth Infusion agar (BHIA) for colony-forming unit (CFU) determinations (i.e., viable bacterial counts). Plates were incubated for 24 h at 35° C. It represents the results of three independent experiments.
# [4] = system: MRSA USA300; test: MIC by microdilution, alone or in combination, MRSA USA300; type: cell-based, Staphylococcus aureus; conditions: agent used alone
# Method: as §1, §2
# [5] = system: Listeria monocytogenes ATCC 13932 SCVs; test: Time-kill experiments, Listeria monocytogenes SCV; type: cell-based; conditions: 8 μg/mL; 8 h and 24 h; hydrochloride
# Method: Time-kill experiments were performed in order to determine whether the effect of test compounds on SCVs of bacterial species of the Firmicutes phylum is bacteriostatic (prevents growth) or bactericidal (kills cells).
# Listeria monocytogenes ATCC 13932 SCVs were produced by plating a large inoculum (˜10^5 bacterial cells) on brain heart infusion agar (BHIA) plates containing various amounts of gentamicin in order to create a selective pressure for the generation of electron transport-deficient bacteria with the SCV phenotype, which are known to be less susceptible to aminoglycoside antibiotics (e.g., gentamicin). Indeed, aminoglycosides require the proton-motive force in order to penetrate the bacterium (Bryan and Kwan, 1981). As expected, SCV isolates were collected from such selective plates and were then passaged on drug-free medium to assess stability of the SCV phenotype. SCV isolates keeping the SCV phenotype after several passages on drug-free medium were then used for experiments described below.
# One of the L. monocytogenes SCV described above was used in time-kill experiments as described in Example 22. […] At some time-points during growth at 35° C. (225 RPM), bacteria were sampled, serially diluted and plated on BHIA for colony-forming unit (CFU) determinations (i.e., viable bacterial counts). Plates were incubated for 48 h at 35° C. […]
# [6] = system: S. aureus SCV strain NewbouldΔhemB; test: MIC by microdilution against SCV strain; type: cell-based, Staphylococcus aureus
# Method: as §1, with “2004). […]” for “2004).”
# [7] = compound tested alone, strain NewbouldΔhemB
substance,measurement,setting,value
3-(N-aminoethyl)-aminotomatidine hydrochloride [Compound 14],solubility in DMSO,,26 mg/mL
same,Fold increase in resistance (MIC for mutant / MIC for NewbouldΔhemB),[1]; mutant SaR2,8 fold
same,MIC,[1]; tomatidine-resistant mutant SaR2,4 µg/mL
same,MIC,[2],16 µg/mL
same,effect in time-kill in combination with gentamicin,[3]; 8 μg/ml with 2 μg/ml gentamicin,important bactericidal synergy
same,effect on growth in time-kill (CFU),[3]; used alone at 8 μg/ml,reduces the growth
same,MIC,[4],16 µg/mL
same,bactericidal effect on L. monocytogenes SCV (CFU),[5],efficiently kills; also recorded: superior bactericidal activity
same,MIC,[6]; S. aureus hemB (SCV strain NewbouldΔhemB),0.5 µg/mL
same,Activity of the compounds against the SCV strain (class),[6]; [7],Moderate (MIC = 0.5-4 μg/mL: moderate activity)
same,MIC vs SCV,[6]; [7],0.5 to 1 µg/mL
